EP1531819B1, “USE OF I kappa B KINASE INHIBITORS FOR THE TREATMENT OF PAIN” (Sanofi-Aventis Deutschland GmbH, priority 2002, dated 2004)

Key:
[1] = test system: Zymosan-induzierte Pfotenentzündung bei der Maus; experiment: Model 4: zymosan-induced paw inflammation, spontaneous running wheel performance, AUC; format: in vivo, C57/B6 Mäuse; settings: for AUC Mittelwert (Laufradaktivität): 7 days after Zymosan; for Statistischer Unterschied gegenüber Vehikel: Laufradaktivität AUC
Text: Das Versuchstier hat in seinem Haltungskäfig Zugang zu einem Laufrad, dessen Umdrehungen elektronisch registriert werden. Die C57/B6 Mäuse benutzen in den Nachtstunden freiwillig das Laufrad und legen im Mittel nach einer einwöchigen Gewöhnungsphase 4100 Meter/Nacht zurück. Nach Zymosan Injektion ist die nächtliche Laufstrecke verkürzt. Diese Abnahme der Laufleistung gilt als Parameter für entzündungsschmerzbedingte Funktionseinschränkung. Versuchsdurchführung: Die Laufstrecke/24 Std. wurde nach einer Eingewöhnungsphase eine Woche lang zur Bestimmung der Baseline gemessen. Dann wurde in Kurzzeitnarkose mit Isofluran dem Versuchstier 25 µl einer Suspension, die […] Zymosan enthielt, in die rechte Hinterpfote injiziert. Anschließend wurde Laufstrecke/24 Std. während der nächsten sieben Tage ermittelt. In der Auswertung wurde die Fläche unter der Kurve der Laufstreckenwerte bestimmt (AUC, Tab. 7): je kleiner die AUC, desto geringer die Laufleistung in der Woche nach Zymosan Injektion. […] Die Substanzgabe wurde am Tag 1 nach Zymosan Injektion begonnen.

[2] = test system: Zymosan-induzierte Pfotenentzündung bei der Maus; experiment: Model 3: zymosan-induced paw inflammation, paw withdrawal latency on thermal stimulation (Hargreaves Test), AUC; format: in vivo; settings: for Statistischer Unterschied gegenüber Vehikel: thermische Hyperalgesie AUC; for AUC Mittelwert [Maß für Hyperalgesie]: thermische Hyperalgesie
Description: Parameter: Pfotenwegziehzeit bei thermischer Stimulation der Hinterpfote. Versuchsdurchführung: In Kurzzeitnarkose mit Isofluran wurde dem Versuchstier 25 μl einer Suspension, die 50 mg/ml Zymosan enthielt, in die rechte Hinterpfote injiziert. Dann wurde die […] quantitativ wie folgt bestimmt: Bestimmung der Pfotenwegziehzeit bei thermischer Stimulation (Hargreaves Test; s.o.). Das Versuchstier wurde in […] Versuchstier nach der Erkundungsphase (etwa 5 min) nicht mehr bewegte, wurde […] zu stimulierenden Hinterpfote positioniert und […]. Die […] ab, so dass die Hauttemperatur […] linear […] Pfote […] ab. Die Pfotentemperatur zum Zeitpunkt des Wegziehens ist für das Tier gerade eben unangenehm, […] von thermischer Schmerzschwelle. Kurz vor Zymosan-Injektion und für 7 bis 14 Tage nach Injektion wurde […] an der rechten und linken Hinterpfote bestimmt. Anschließend wurde […] Integral der Fläche, die aus […] und […] Pfote gebildet wurde, bestimmt (AUC, area between the curves, s. Tabellen 5 und 6). Je größer dieser Wert ist, umso […], und je kleiner der Wert bei Tieren, die die Substanz erhalten, desto stärker ist der Therapieerfolg. In einer 7-Tage Studie induzierte die Zymosan Injektion in […], Tab. 5). In den anderen Gruppen wurde die Substanzgabe einen Tag nach Zymosan Injektion, […] schon […]. […] Die […] Studie (7 Tage) ergab, dass die AUC unter Substanzgabe dosisabhängig abnahm. […] In einer parallel […] von Tieren wurde Paracetamol in einer sehr hohen Dosis ebenfalls zweimal am Tag verabreicht. […] Paracetamol (Tab. 5). […] […] Zymosan Injektion und Dosierschema […] zuvor beschriebenen Studie. Einziger Unterschied war, dass die weitere Studie über 14 Tage lief.

[3] = test system: Zymosan-induzierte Pfotenentzündung bei der Ratte; experiment: Model 1a: zymosan-induced paw inflammation, paw withdrawal latency on thermal stimulation (Hargreaves Test); format: in vivo
[4] = test system: Kaolin/Carrageenan induzierte Kniegelenksentzündung bei der Ratte; experiment: Model 2: kaolin/carrageenan-induced knee joint inflammation, responses of spinal neurons to pressure on the knee; format: in vivo
Text: Modell: Zymosan-induzierte Pfotenentzündung bei der Ratte; Parameter: Pfotenwegziehzeit oder Pfotenwegziehschwelle bei thermischer oder mechanischer Stimulation der Hinterpfote. • 2. Modell: Kaolin/Carrageenan induzierte Kniegelenksentzündung bei der Ratte; Parameter: Reaktion spinaler Neurone bei Druckreizung des Knies.
Versuchsdurchführung: Bei Ratten wurde in Trapanal-Narkose der Wirbelkanal eröffnet und Rückenmarksneurone, die "Schmerzimpulse" aus dem Kniegelenk verarbeiteten, identifiziert. Nach Identifizierung wurde eine Langzeitableitung durchgeführt, in der die Aktivität der Nervenzelle vor und während der Entwicklung einer akuten Entzündung im Kniegelenk registriert wurde. Dazu wurden in einer Kontrollperiode vor Induktion der Entzündung und nach Induktion der Entzündung für mehrere Stunden die Antworten auf nicht noxische und noxische Reizung am Kniegelenk gemessen.
Die akute Entzündung wurde durch die intraartikuläre Injektion einer Kaolin und Carrageenan Suspension (etwa 150 µl) induziert. In Kontrollexperimenten wurde nur das Vehikel auf die Rückenmarksoberfläche aufgebracht, um die Entwicklung der Übererregbarkeit unter Kontrollbedingungen darzustellen. In der Regel fand diese Entwicklung der Übererregbarkeit innerhalb von 2 bis 4 Stunden statt, und sie äußerte sich in einer starken Zunahme der Antworten auf nicht noxische und noxische Reizung des Kniegelenks (Tab. 3). […] Dann wurden die Antworten der Zelle auf nichtnoxische und noxische Reizung wie in den Kontrollexperimenten weiter verfolgt.

[5] = test system: Zymosan-induzierte Pfotenentzündung bei der Ratte; experiment: Model 1b: zymosan-induced paw inflammation, paw withdrawal threshold on mechanical stimulation (von Frey Test); format: in vivo
[6] = 7 days, 2.8 mg/kg oral twice daily
[7] = 7 days, 25 mg/kg oral twice daily
[8] = 7 days, 75 mg/kg oral twice daily
[9] = je 30 mg/kg i.p. (x3), 0,5 h nach Zymosan-Injektion
[10] = je 30 mg/kg i.p. (x3), 1 h nach Zymosan-Injektion
[11] = je 30 mg/kg i.p. (x3), 2 h nach Zymosan-Injektion
[12] = je 30 mg/kg i.p. (x3), 3 h nach Zymosan-Injektion
[13] = je 30 mg/kg i.p. (x3), 4 h nach Zymosan-Injektion
[14] = je 30 mg/kg i.p. (x3), 5 h nach Zymosan-Injektion
[15] = je 30 mg/kg i.p. (x3), 6 h nach Zymosan-Injektion
[16] = je 30 mg/kg i.p. (x3), 7 h nach Zymosan-Injektion
[17] = je 30 mg/kg i.p. (x3), 24 h nach Zymosan-Injektion
[18] = je 30 mg/kg i.p. (x3), Baseline -0,5 h
[19] = etwa 30 µl of 10 µM Lösung on the spinal cord, 30-60 min nach K/C-Injektion
[20] = etwa 30 µl of 10 µM Lösung on the spinal cord, 60-120 min nach K/C-Injektion
[21] = etwa 30 µl of 10 µM Lösung on the spinal cord, 120-180 min nach K/C-Injektion
[22] = etwa 30 µl of 10 µM Lösung on the spinal cord, 180-240 min nach K/C-Injektion
[23] = etwa 30 µl of 10 µM Lösung on the spinal cord, Baseline

CNc1nccc(-c2cc3cc(C(=O)N[C@@H](CN(c4ccccc4)c4ccccc4)c4n[nH]c(=O)o4)ccc3[nH]2)n1 [Verbindung 13, 2-(2-Methylamin-pyrimidin-4-yl)-1H-indol-5-carbonsäure [(S)-2-diphenylamin-1-(5-oxo-4,5-dihydro-[1,3,4]oxadiazol-2-yl)-ethyl]-amid]
AUC Mittelwert (Laufradaktivität) ([1]; 2.8 mg/kg oral twice daily): 131.1 | AUC Mittelwert (Laufradaktivität) ([1]; 25 mg/kg oral twice daily): 216.7 | AUC Mittelwert (Laufradaktivität) ([1]; 75 mg/kg oral twice daily): 251.7 | Laufleistung nach Zymosan Injektion gegenüber der Vehikelgruppe ([1]; 7 days, twice daily): dosisabhängige Steigerung der Laufstrecke | Statistischer Unterschied gegenüber Vehikel [1, 6]: nein | Statistischer Unterschied gegenüber Vehikel [1, 7]: ja | Statistischer Unterschied gegenüber Vehikel [1, 8]: ja | thermische Hyperalgesie, comparison with Paracetamol ([2]; 7-day study, twice daily): stärker als Paracetamol | Effekte on thermische Hyperalgesie in der hohen Dosierung ([2]; 14-day study, high dose (25 mg/kg)): gleich stark | minimal effective dose ([2]; 168 h, 7-day study, oral twice daily, read-out: Einzeldosis from which Therapieerfolg signifikant gegenüber der Vehikelgruppe): ≥ 8.3 mg/kg | Statistischer Unterschied gegenüber Vehikel [2, 6]: nein | Statistischer Unterschied gegenüber Vehikel [2, 7]: ja | Statistischer Unterschied gegenüber Vehikel [2, 8]: ja | Statistischer Unterschied gegenüber Vehikel ([2]; 14 days, 25 mg/kg twice daily): ja | AUC Mittelwert [Maß für Hyperalgesie] ([2]; 7 days after Zymosan, 2.8 mg/kg oral twice daily): 40.4 | AUC Mittelwert [Maß für Hyperalgesie] ([2]; 7 days after Zymosan, 25 mg/kg oral twice daily): 19.4 | AUC Mittelwert [Maß für Hyperalgesie] ([2]; 7 days after Zymosan, 75 mg/kg oral twice daily): 17.4 | AUC Mittelwert [Maß für Hyperalgesie] ([2]; 14 days after Zymosan, 25 mg/kg twice daily): 47.6 | thermische Hyperalgesie, comparison with Diclofenac ([3]; comparison data from an earlier study): erheblich stärker reduziert als das NSAID Diclofenac | thermische Hyperalgesie, duration of effect nach der letzten Substanzgabe ([3]; je 30 mg/kg i.p. (x3)): > 18 Std. | Veränderung der Pfotenwegziehzeit (%) Mittelwert [3, 9]: -16,6% | Veränderung der Pfotenwegziehzeit (%) Mittelwert [3, 10]: -31,3% | Veränderung der Pfotenwegziehzeit (%) Mittelwert [3, 11]: -30,2% | Veränderung der Pfotenwegziehzeit (%) Mittelwert [3, 12]: -15,3% | Veränderung der Pfotenwegziehzeit (%) Mittelwert [3, 13]: -16,0% | Veränderung der Pfotenwegziehzeit (%) Mittelwert [3, 14]: -9,7% | Veränderung der Pfotenwegziehzeit (%) Mittelwert [3, 15]: 5,0% | Veränderung der Pfotenwegziehzeit (%) Mittelwert [3, 16]: 3,4% | Veränderung der Pfotenwegziehzeit (%) Mittelwert [3, 17]: -3,8% | Veränderung der Pfotenwegziehzeit (%) Mittelwert [3, 18]: 0,0% | thermische Hyperalgesie, Seitenunterschied in der Pfotenwegziehzeit ([3]; je 30 mg/kg i.p., after the third dose): überhaupt kein Seitenunterschied in der Pfotenwegziehzeit mehr zu finden | thermische Hyperalgesie compared with Kontrollgruppe ([3]; je 30 mg/kg i.p., from two hours after Zymosan Injektion): geringer ausgeprägt als in der Kontrollgruppe | Wirkung auf die Antworten auf noxische Kniegelenksstimulation, comparison with Indomethacin ([4]; comparison with published data of an earlier study): insgesamt stärker ausgeprägt als die Wirkung von Indomethacin | Entwicklung der spinalen Übererregbarkeit gegenüber den Kontrollen ([4]; etwa 30 µl of 10 µM Lösung on the spinal cord): beinahe vollständig unterdrückt | Neuronale Antworten vor und während Kniegelenksentzündung, Nicht-noxische Reizung am Kniegelenk, Mittelwert [4, 19]: 8,66 imp/15s | Neuronale Antworten vor und während Kniegelenksentzündung, Noxische Reizung am Kniegelenk, Mittelwert [4, 19]: 62,3 imp/15s | Neuronale Antworten vor und während Kniegelenksentzündung, Nicht-noxische Reizung am Kniegelenk, Mittelwert [4, 20]: 2,71 imp/15s | Neuronale Antworten vor und während Kniegelenksentzündung, Noxische Reizung am Kniegelenk, Mittelwert [4, 20]: 26,9 imp/15s | Neuronale Antworten vor und während Kniegelenksentzündung, Nicht-noxische Reizung am Kniegelenk, Mittelwert [4, 21]: 11,16 imp/15s | Neuronale Antworten vor und während Kniegelenksentzündung, Noxische Reizung am Kniegelenk, Mittelwert [4, 21]: 8,5 imp/15s | Neuronale Antworten vor und während Kniegelenksentzündung, Nicht-noxische Reizung am Kniegelenk, Mittelwert [4, 22]: 39,78 imp/15s | Neuronale Antworten vor und während Kniegelenksentzündung, Noxische Reizung am Kniegelenk, Mittelwert [4, 22]: 19,5 imp/15s | Neuronale Antworten vor und während Kniegelenksentzündung, Nicht-noxische Reizung am Kniegelenk, Mittelwert [4, 23]: 0,92 imp/15s | Neuronale Antworten vor und während Kniegelenksentzündung, Noxische Reizung am Kniegelenk, Mittelwert [4, 23]: 0,8 imp/15s | mechanische Hyperalgesie ([5]; je 30 mg/kg i.p. (x3)): signifikant reduziert | mechanische Hyperalgesie, duration of effect nach der letzten Substanzgabe ([5]; je 30 mg/kg i.p. (x3)): ≥ 18 Std. | mechanische Hyperalgesie, onset of effect nach Zymosan Injektion ([5]; je 30 mg/kg i.p. (x3)): 1 Stunde | Veränderung der Pfotenwegziehschwelle (%) Mittelwert [5, 9]: -37,4% | Veränderung der Pfotenwegziehschwelle (%) Mittelwert [5, 10]: -43,1% | Veränderung der Pfotenwegziehschwelle (%) Mittelwert [5, 11]: -36,0% | Veränderung der Pfotenwegziehschwelle (%) Mittelwert [5, 12]: -35,1% | Veränderung der Pfotenwegziehschwelle (%) Mittelwert [5, 13]: -46,7% | Veränderung der Pfotenwegziehschwelle (%) Mittelwert [5, 14]: -40,6% | Veränderung der Pfotenwegziehschwelle (%) Mittelwert [5, 15]: -33,1% | Veränderung der Pfotenwegziehschwelle (%) Mittelwert [5, 16]: -44,7% | Veränderung der Pfotenwegziehschwelle (%) Mittelwert [5, 17]: -9,7% | Veränderung der Pfotenwegziehschwelle (%) Mittelwert [5, 18]: 0,0%
